In PMC9606955, “In Vitro Activity of Essential Oils Distilled from Colombian Plants against Candida auris and Other Candida Species with Different Antifungal Susceptibility Profiles” (Molecules, 2022):
In brackets after ≈: the same amount, converted by molar mass.

Key:
[1] = tested on: C. metapsilosis MUM 15.12; experiment: MIC, CLSI M27 broth microdilution; assay type: cell-based, Candida metapsilosis; details: C. metapsilosis MUM 17.13 (Table 3), EOs and terpenes, 24 h, top concentration 256 µg/mL
From the text: (§1) The fungal strains used in this study were C. albicans ATCC 10231, C. albicans ATCC 64550, C. parapsilosis ATCC 22019, C. tropicalis ATCC 750, C. tropicalis ATCC 200956 (resistant to azoles and AMB), C. glabrata LMDM 34 (resistant to echinocandins), C. metapsilosis MUM 15.12, C. orthopsilosis MUM 17.13, C. lusitaniae MUM 17.08, C. krusei ATCC 6258 (Issatchenkia orientalis ATCC 6258), and C. auris CDC B11903. Additionally, nine clinical isolates were included: C. parapsilosis Synlab 406 (FLC-resistant) and eight C. auris isolates identified by MALDI-TOF MS (Bruker Daltonics, Bremen, Germany) according to Zhao et al.. These yeasts were cultured on Sabouraud Dextrose Agar (SDA; Sigma-Aldrich, St. Louis, MO, USA) for 24 h at 35 °C.
(§2) Antifungal susceptibility testing was performed according to Clinical and Laboratory Standards Institute M27, 4th Edition (CLSI standard M27, 4th Edition). Some modifications were applied for evaluation of the antifungal activity of EOs and terpenes. Initially, a screening was carried out to determine the antifungal activity of the EOs and of commercial terpenes. Stock concentrations of EOs and terpenes were prepared at 512 µg/mL and an inoculum of 2.5 × 10^3 CFU/mL of each yeast was prepared in RPMI 1640-MOPS (Sigma- Aldrich St. Louis, MO, USA). Thereafter, 100 µL of each stock solution of EOs or terpenes was dispensed in 96-well microdilution plates (Corning®, Costar®, NY, USA) and 100 µL of each yeast inoculum was added. […] Microdilution plates were incubated at 35 °C and, after 24 h, the presence or absence of growth was visually checked using a manual mirror viewer and then compared with the amount of growth in the control (no EO or terpene). Compounds able to inhibit yeast growth were tested to determine the minimal inhibitory concentration (MIC) as follows: 100 µL of 10 two-fold dilutions of the EOs or commercial terpenes was dispensed in 96-well microplates and the yeast inoculum was added. Final concentrations of the EOs or terpenes ranged from 0.5 µg/mL to 256 µg/mL. Microdilution plates were incubated at 35 °C for 24 h. MICs were visually determined at the lowest concentration that produced visual inhibition compared to the growth control. The assays were performed at least three times in duplicate on different days. The results were expressed as geometric means (GM) and ranges. As an antifungal susceptibility testing control, the activity of ITC and AMB against the reference strains C. krusei ATCC 6258 and C. parapsilosis ATCC 22019 was evaluated in all experiments following the CLSI standard M27, 4th Edition. It was mandatory that the MIC values remained in the accepted range.

[2] = tested on: C. tropicalis ATCC 200956; experiment: MIC, CLSI M27 broth microdilution; assay type: cell-based, Candida tropicalis; details: C. tropicalis ATCC 200956, EOs and terpenes
From the text: as §1, §2

[3] = tested on: C. parapsilosis Synlab 406; experiment: MIC, CLSI M27 broth microdilution; assay type: cell-based, Candida parapsilosis; details: C. parapsilosis Synlab 406, EOs and terpenes
From the text: as §1, §2

in vitro = details: human
Method: (§4) Cells were cultured in Dulbecco’s Modified Eagle Medium (DMEM; Sigma-Aldrich, St. Louis, MO, USA) supplemented with 10% fetal bovine serum (Invitrogen, Carlsbad, CA, USA), 1% penicillin, streptomycin, and neomycin (Invitrogen, Carlsbad, CA, USA), and 1% L-glutamine (Invitrogen, Carlsbad, CA, USA) at 37 °C in a humidified atmosphere of 5% CO2. […] Afterwards, the culture medium was removed and 3-(4.5-dimethylthiazol-2-yl)-2.5-diphenyltetrazolium bromide (MTT) (Sigma-Aldrich, St. Louis, MO, USA) at 5 mg/mL was added at 37 °C for 2 h. Subsequently, DMSO was added to dissolve the formazan crystals. Finally, the absorbances were measured with a Multiskan SkyHigh Microplate Spectrophotometer (Thermo Fisher Scientific, Waltham, MA, USA) at λ = 570 nm. The CC50 values were obtained by linear regression analysis with concentration–response curves, which were performed with absorbance data using GraphPad Prism software (Prism 9.3.0, San Diego, CA, USA). The assays were conducted at two separate times in triplicate. The data were expressed as means.

C. auris Ca 1 = experiment: MIC, CLSI M27 broth microdilution; assay type: cell-based, Candida auris; details: C. auris Ca 1, EOs and terpenes, 24 h, top concentration 256 µg/mL
From the text: as §1, §2

C. auris Ca 17 = experiment: MIC, CLSI M27 broth microdilution; assay type: cell-based, Candida auris; details: C. auris Ca 17, EOs and terpenes, 24 h, top concentration 256 µg/mL
From the text: as §1, §2

C. auris Ca 32 = experiment: MIC, CLSI M27 broth microdilution; assay type: cell-based, Candida auris; details: C. auris Ca 32, EOs and terpenes
From the text: as §1, §2

C. auris Ca 9 = experiment: MIC, CLSI M27 broth microdilution; assay type: cell-based, Candida auris; details: C. auris Ca 9, EOs and terpenes
From the text: as §1, §2

C. auris Ca 41 = experiment: MIC, CLSI M27 broth microdilution; assay type: cell-based, Candida auris; details: C. auris Ca 41, EOs and terpenes, 24 h, top concentration 256 µg/mL
From the text: as §1, §2

C. auris CDC B11903 = experiment: MIC, CLSI M27 broth microdilution; assay type: cell-based, Candida auris; details: C. auris CDC B11903, EOs and terpenes, 24 h, top concentration 256 µg/mL
From the text: as §1, §2

C. auris Ca 45 = experiment: MIC, CLSI M27 broth microdilution; assay type: cell-based, Candida auris; details: C. auris Ca 45, EOs and terpenes, 24 h, top concentration 256 µg/mL
From the text: as §1, §2

C. auris Ca 13 = experiment: MIC, CLSI M27 broth microdilution; assay type: cell-based, Candida auris; details: C. auris Ca 13, EOs and terpenes
From the text: as §1, §2

C. auris Ca 46 = experiment: MIC, CLSI M27 broth microdilution; assay type: cell-based, Candida auris; details: C. auris Ca 46, EOs and terpenes, 24 h, top concentration 256 µg/mL
From the text: as §1, §2

[4] = tested on: C. orthopsilosis MUM 17.13; experiment: MIC, CLSI M27 broth microdilution; assay type: cell-based, Candida orthopsilosis; details: C. orthopsilosis MUM 15.12 (Table 3), EOs and terpenes, 24 h, top concentration 256 µg/mL
From the text: as §1, §2

C. lusitaniae MUM 17.08 = experiment: MIC, CLSI M27 broth microdilution; assay type: cell-based, Candida lusitaniae; details: C. lusitaniae MUM 17.08, EOs and terpenes
From the text: as §1, §2

C. auris = experiment: MIC, CLSI M27 broth microdilution, several C. auris strains together; assay type: cell-based, Candida auris; details: over all C. auris strains of Table 4
From the text: as §1
(§3) Antifungal susceptibility testing was performed according to Clinical and Laboratory Standards Institute M27, 4th Edition (CLSI standard M27, 4th Edition). […] MICs were visually determined at the lowest concentration that produced visual inhibition compared to the growth control. […] The results were expressed as geometric means (GM) and ranges. As an antifungal susceptibility testing control, the activity of ITC and AMB against the reference strains C. krusei ATCC 6258 and C. parapsilosis ATCC 22019 was evaluated in all experiments following the CLSI standard M27, 4th Edition. […]

Candida spp. [5] = experiment: MIC, CLSI M27 broth microdilution, all Candida spp. of Tables 3 and 4 together; assay type: cell-based; details: over all strains of Table 3 and Table 4
From the text: as §1, §3

Candida spp. [6] = experiment: Screening of antifungal activity at 256 µg/mL against twenty strains; assay type: cell-based; details: screening at 256 µg/mL
From the text: as §1
Antifungal susceptibility testing was performed according to Clinical and Laboratory Standards Institute M27, 4th Edition (CLSI standard M27, 4th Edition). Some modifications were applied for evaluation of the antifungal activity of EOs and terpenes. Initially, a screening was carried out to determine the antifungal activity of the EOs and of commercial terpenes. Stock concentrations of EOs and terpenes were prepared at 512 µg/mL and an inoculum of 2.5 × 10^3 CFU/mL of each yeast was prepared in RPMI 1640-MOPS (Sigma- Aldrich St. Louis, MO, USA). Thereafter, 100 µL of each stock solution of EOs or terpenes was dispensed in 96-well microdilution plates (Corning®, Costar®, NY, USA) and 100 µL of each yeast inoculum was added. […] MICs were visually determined at the lowest concentration that produced visual inhibition compared to the growth control. […] The results were expressed as geometric means (GM) and ranges. As an antifungal susceptibility testing control, the activity of ITC and AMB against the reference strains C. krusei ATCC 6258 and C. parapsilosis ATCC 22019 was evaluated in all experiments following the CLSI standard M27, 4th Edition. […]

HaCaT cell line = experiment: Cytotoxicity, MTT assay; details: MTT, 24 h treatment, HaCaT keratinocytes
Method: as §4

C. krusei ATCC 6258 = experiment: MIC, CLSI M27 broth microdilution; assay type: cell-based, Candida krusei; details: C. krusei ATCC 6258; EOs and terpenes; 24 h; top concentration 256 µg/mL
From the text: as §1, §2

[7] = 24 h, top concentration 256 µg/mL

**Q.** Which MIC ([1]; Lodderomyces metapsilosis, MUM15.12, read-out: GM MIC) does the source give for `C=C(C)[C@@H]1CC=C(CO)CC1` [Perillyl alcohol, perillyl alcohol] here?
**A.** 256 mg/L (≈ 1680 µM)

**Q.** What about the “Range MIC” value [2] of the same compound?
**A.** 128 to 256 mg/L

**Q.** And the MIC ([2]; Candida tropicalis, ATCC200956, 24 h, top concentration 256 µg/mL, read-out: GM MIC)?
**A.** 181 mg/L (≈ 1190 µM)

**Q.** And the “Range MIC” value [3]?
**A.** 64 to 128 mg/L

**Q.** And the MIC ([3]; Lodderomyces parapsilosis, SYNLAB406, 24 h, top concentration 256 µg/mL, read-out: GM MIC)?
**A.** 90.5 mg/L (≈ 594 µM)

**Q.** And the CC50 at 24 h (in vitro)?
**A.** 401 mg/L (≈ 2630 µM)

**Q.** And the MIC (C. auris Ca 1; Candidozyma auris, CA1, read-out: GM MIC)?
**A.** 256 mg/L (≈ 1680 µM)

**Q.** And the MIC (C. auris Ca 17; Candidozyma auris, CA17, read-out: GM MIC)?
**A.** 256 mg/L (≈ 1680 µM)

**Q.** What about the MIC (C. auris Ca 32; Candidozyma auris, CA32, 24 h, top concentration 256 µg/mL, read-out: GM MIC) of the same compound?
**A.** 128 mg/L (≈ 841 µM)

**Q.** What about the MIC (C. auris Ca 9; Candidozyma auris, CA9, 24 h, top concentration 256 µg/mL, read-out: GM MIC) of the same compound?
**A.** 128 mg/L (≈ 841 µM)

**Q.** And the MIC (C. auris Ca 41; Candidozyma auris, CA41, read-out: GM MIC)?
**A.** 128 mg/L (≈ 841 µM)

**Q.** And the MIC (C. auris CDC B11903; Candidozyma auris, CDCB11903, read-out: GM MIC)?
**A.** 256 mg/L (≈ 1680 µM)

**Q.** What about the MIC (C. auris Ca 45; Candidozyma auris, CA45, read-out: GM MIC) of the same compound?
**A.** 256 mg/L (≈ 1680 µM)

**Q.** What about the MIC (C. auris Ca 13; Candidozyma auris, CA13, 24 h, top concentration 256 µg/mL, read-out: GM MIC) of the same compound?
**A.** 256 mg/L (≈ 1680 µM)

**Q.** What about the MIC (C. auris Ca 46; Candidozyma auris, CA46, read-out: GM MIC) of the same compound?
**A.** 256 mg/L (≈ 1680 µM)

**Q.** And the MIC ([4]; Lodderomyces orthopsilosis, MUM17.13, read-out: GM MIC)?
**A.** 256 mg/L (≈ 1680 µM)

**Q.** And the “Range MIC” value (C. lusitaniae MUM 17.08)?
**A.** 128 to 256 mg/L

**Q.** And the MIC (C. lusitaniae MUM 17.08; Clavispora lusitaniae, MUM17.08, 24 h, top concentration 256 µg/mL, read-out: GM MIC)?
**A.** 181 mg/L (≈ 1190 µM)

**Q.** With `C=C(C)[C@H]1CC=C(C)CC1` [Limonene, limonene] as the compound, how does the “GM MIC” value [1] read?
**A.** 64 mg/L

**Q.** And the “GM MIC” value [2, 7]?
**A.** 64 mg/L

**Q.** And the MIC Range (C. auris)?
**A.** 16 to 64 mg/L

**Q.** And the “GM MIC” value [3, 7]?
**A.** 64 mg/L

**Q.** What about the MIC Range (Candida spp. [5]) of the same compound?
**A.** 16 to 64 mg/L

**Q.** And the “antifungal activity in screening” value (Candida spp. [6])?
**A.** active against all tested Candida spp.

**Q.** What about the “HaCaT Cells Mean CC50” value (HaCaT cell line) of the same compound?
**A.** 400.5 mg/L

**Q.** What about the “GM MIC” value (C. auris Ca 1) of the same compound?
**A.** 64 mg/L

**Q.** What about the “GM MIC” value (C. auris Ca 17) of the same compound?
**A.** 64 mg/L

**Q.** What about the “Range MIC” value (C. auris Ca 32) of the same compound?
**A.** 16 to 32 mg/L

**Q.** What about the “GM MIC” value (C. auris Ca 32; [7]) of the same compound?
**A.** 22.6 mg/L

**Q.** What about the “Range MIC” value (C. auris Ca 9) of the same compound?
**A.** 16 to 32 mg/L

**Q.** And the “GM MIC” value (C. auris Ca 9; [7])?
**A.** 22.6 mg/L

**Q.** What about the “GM MIC” value (C. auris Ca 41) of the same compound?
**A.** 16 mg/L

**Q.** What about the “GM MIC” value (C. auris CDC B11903) of the same compound?
**A.** 64 mg/L

**Q.** And the “GM MIC” value (C. auris Ca 45)?
**A.** 16 mg/L

**Q.** And the “Range MIC” value (C. auris Ca 13)?
**A.** 16 to 32 mg/L

**Q.** And the “GM MIC” value (C. auris Ca 13; [7])?
**A.** 22.6 mg/L

**Q.** And the “GM MIC” value (C. auris Ca 46)?
**A.** 16 mg/L

**Q.** What about the “GM MIC” value [4] of the same compound?
**A.** 16 mg/L

**Q.** What about the “GM MIC” value (C. krusei ATCC 6258) of the same compound?
**A.** 32 mg/L

**Q.** What about the “Range MIC” value (C. lusitaniae MUM 17.08) of the same compound?
**A.** 16 to 32 mg/L

**Q.** And the “GM MIC” value (C. lusitaniae MUM 17.08; [7])?
**A.** 22.6 mg/L
